# Laboratory results reported in patent publication US5219841A, “Treatment of arrhythmia by administration of Ap4 A” (Fujirebio, Inc., priority 1989, dated 1993).
# “Also recorded” adds a separate entry of the source.
# Experiments:
# guinea pig right atrium = experiment: Effect on heart rate of isolated guinea pig right atrium; conditions: for change of heart rate (bradycardic effect): single dose, 10^-7 to 10^-4 M, KH solution, 31° C.
# Protocol: A guinea pig (b.w. 450 g) was stunned and was immediately removed its heart to excise the right atrium therefrom. The right atrium was then suspended in a Magnus tube (30 ml) filled with Krebs-Henseleit (KH) solution which was maintained at 31° C. constantly aerating with a mixture of 95% O2 --5% CO2 therein. After the KH solution was changed with the fresh one at 15-minutes intervals and the heart rate of the right atrium was stabilized in 60-90 minutes, Ap4 A or ATP which was prepared at different concentrations was added to the KH solution in a single dose to determine the change of heart rate. Drug concentrations of 10^-4, 10^-5, 10^-6 and 10^-7 M were employed in this experiment. The heart rate was determined with a cardiotachometer (Nihon Kohden Co.; Model AT601G; Japan) and an isometric converter (Nihon Kohden Co.; Model TB-651T), with a 1-g weight load.
# arrhythmia = conditions: cited from earlier work; for antiarrhythmic activity: Somlo 1955, Komor and Garas 1955
# [1] = Fujii and Nakamura 1977; cited from earlier work
# platelet aggregation = experiment: Platelet aggregation by the drug itself in absence of ADP; type: cell-based, rabbit
# [2] = system: ouabain-induced cardiac arrhythmia; experiment: Ouabain-induced arrhythmia model; type: in vivo, guinea pig; conditions: for antiarrhythmic effect: onset of P-P interval prolongation, T-P overlapping, ventricular arrhythmia, ventricular fibrillation and cardiac arrest: i.v. infusion over 5 min: ATP 10 or 30 mg/kg, Ap4 A 30 mg/kg, disopyramide 5 mg/kg, ouabain 7 μg/kg/min
# Protocol: With a guinea pig (b.w. 450 g) placed under urethane anesthesia (1.1 g/kg), its femoral vein, jugular vein and carotid artery were cannulated. Ap4 A, ATP or disopyramide was injected into the femoral vein and ouabain into the jugular vein through each cannula, while the carotid artery was utilized for a blood pressure monitoring. Changes associated with the administration of the drug were assessed by monitoring electrocardiogram (ECG), blood pressure, mean blood pressure and heart rate (Nihon Kohden Co.; Models AB620G, AP601G and AT601G). ECG was recorded in accordance with the lead II.
# Ouabain-induced cardiac arrhythmia model was prepared by continuous infusion of ouabain at a rate of 7 μg/kg/min via the jugular vein. Each drug was administered by intravenous infusion over a period of 5 minutes at the following dose: ATP, 10 or 30 mg/kg; Ap4 A, 30 mg/kg; and disopyramide, 5 mg/kg. The drug was administered simultaneously with the infusion of ouabain. The antiarrhythmic effect of the drug tested was assessed in terms of the total dose of ouabain given until onset of each of the following parameters: P-P interval prolongation, T-P overlapping, ventricular arrhythmia, ventricular fibrillation and cardiac arrest.
# [3] = system: adrenaline-induced cardiac arrhythmia; experiment: Adrenaline-induced arrhythmia model; type: in vivo, guinea pig; conditions: for incidence of extrasystole: 10 mg/kg/5min i.v., adrenaline 10 μg/kg, control value 39%; for antiarrhythmic effect (reduction of incidence of extrasystole): i.v. infusion over 5 min: ATP 3 or 10 mg/kg, Ap4 A 3 or 10 mg/kg, propranolol 1 mg/kg
# Protocol: With a guinea pig (b.w. 450 g) placed under urethane anesthesia (1.1 g/kg), its femoral vein, jugular vein and carotid artery were cannulated. Ap4 A, ATP or propranolol was injected into the femoral vein and adrenaline into the jugular vein through each cannula, while the carotid artery was utilized for a blood pressure monitoring. Changes associated with the administration of the drug were monitored in the same manner as above (B), and ECG was recorded in accordance with the lead II.
# Adrenaline-induced cardiac arrhythmia model was prepared by injecting adrenaline (10 μg/kg) into the jugular vein over 5 seconds. Each drug was administered by intravenous infusion over a period of 5 minutes at the following dose: ATP, 3 or 10 mg/kg; Ap4 A, 3 or 10 mg/kg; propranolol, 1 mg/kg. Adrenaline was administered in a single dose 4 minutes after administration of the drug tested. The grading of arrhythmia was assessed in terms of the incidence of extrasystole.
# [4] = system: ADP-induced platelet aggregation; experiment: ADP-induced platelet aggregation in platelet-rich plasma; type: cell-based, rabbit; conditions: ADP 5 μM
# Protocol: Blood was collected from the carotid artery of an unanesthetized rabbit into a syringe containing one volume of 3.8% sodium citrate per nine volumes of blood. The citrated blood was centrifuged at 1100 rpm for 15 minutes, and the supernatant was obtained as platelet-rich plasma (PRP). To 200 μl of PRP in an aggregometer, 10 μl of ATP or Ap4 A solution was added and the mixture was incubated at 37° C. for 10 minutes, followed by addition of 10 μl of 0.1 mM ADP solution (final concentration: 5μM) to induce and measure the aggregation of platelets. Results obtained for ATP are shown in FIG. 5A and those for Ap4 A in FIG. 5B.
# [5] = system: baby hamster kidney cells; conditions: Grummt 1978; cited from earlier work
# [6] = Half lethal dose, Lichfield-Wilcoxon method; conditions: in vivo, iv, rat
# Excerpt: Ap4 A is a novel type of nucleotide discovered in human platelets in a recent year and has the following chemical structure: [drawing 1] The active ingredient Ap4 A of the pharmaceutical composition according to the present invention is thus preferably in a form of a pharmaceutically acceptable salt thereof such as sodium salt, or it may be in a form of free acid thereof. Ap4 A can be produced by a conventional organic synthesis or by an enzymatic synthesis with, for example, leucyl tRNA synthetase derived from thermophilic Bacillus stearothermoohillus (Japanese Patent Application Laid-Open (KOKAI) No. 62-278992; U.S. Pat. NO. 4886749; EP-A-247819), using ATP as the starting material in either method. […] J. Physiol., 254, 828-832 (1988)].
# [7] = system: adenosine diphosphate (ADP)-stimulated human platelet aggregation; conditions: Luthje and Ogiluie 1984; cited from earlier work
# rabbit mesenteric artery = conditions: Busse et al. 1988; cited from earlier work
# hepatocytes = conditions: Rapaport and Zamecnick 1976; cited from earlier work
# guinea pig heart = experiment: Coronary vasodilative effect, Langendorff perfusion of isolated heart
# Protocol: An experiment was performed by a modification of the method of Aronson and Serlick [Toxicol. Appl. Pharmac., 38, 479-488 (1976) and 39, 157-176 (1977); Biochem. Pharmac. 26, 2297-2305 (1977)]. The guinea pig heart removed was started perfusing at the origin of the aorta by the Langendorff perfusion method. Perfusion was carried out at 37° C. and 14 ml/min of flow rate with a peristalic pump (TAIYO TYPE 1500N; Japan) in Krebs-Henseleit solution (KH: NaCl, 118 mM; phosphate, 1.2 mM; NaHCO3, 25 mM; glucose, 10 mM; KCl, 4.7 mM; CaCl2, 2.5 mM; and MgSO4, 1.2 mM; pH 7.4; bubbling with 95% O2 - 5% CO2). After the initiation of the perfusion, an incision was made in the left auricle and a cannula was inserted into the left ventricle via the left atrium to measure the left ventricular pressure with a pressure transducer (Nihon Kohden Co.; Model TP-200T). The differential value of the left ventricular pressure (dp/dt) was measured with a cardiotachometer (Nihon Kohden Co.; Model AT-601G). The perfusion pressure was determined with a pressure transducer connected to the aortic cannula. Ap4 A was dissolved in KH at various concentrations and administered to the perfusion system in a single dose of 1-100 μg/0.1 ml/5 sec or by a continuous infusion of 1-100 μg/5ml/15 min.
# [8] = 3×10^-5 M or more, absence of ADP
# [9] = single dose 1-100 μg/0.1 ml/5 sec
compound,measurement,setting,value
"Nc1ncnc2c1ncn2[C@@H]1O[C@H](COP(=O)(O)OP(=O)(O)OP(=O)(O)O)[C@@H](O)[C@H]1O [ATP, Adenosine 5'-triphosphate, reference compound]",change of heart rate (bradycardic effect),guinea pig right atrium,reduced the heart rate with a dose-dependency; also recorded: decreased the atrial heart rate with a dose-dependency
same,antiarrhythmic activity,arrhythmia,possess the antiarrhythmic activity
same,effect on paroxysmal supraventricular tachycardia,"arrhythmia; clinical, Otsuka et al. 1986","successful arrest of the paroxysmal supraventricular tachycardia; also recorded: efficacy against the paroxysmal supraventricular tachycardia which is insusceptible to other antiarrhythmic drugs such as verapamil, digoxin and ajimaline"
same,vasodilation and other pharmacological effects,[1],vasodilation; also recorded: enhancement of in vivo metabolic activity; also recorded: increase in muscle contraction; also recorded: rise of efficiency of the neural transmission
same,platelet aggregation by the drug itself,platelet aggregation; [8],caused a dose-dependent aggregation of platelets
same,minimal effective concentration,"platelet aggregation; Oryctolagus cuniculus, Platelet, absence of ADP, read-out: concentration causing dose-dependent aggregation of platelets",≥ 30 µM
same,platelet-aggregating activity,"platelet aggregation; in words, found by the inventors",has platelet-aggregating activity
same,"antiarrhythmic effect: onset of P-P interval prolongation, T-P overlapping, ventricular arrhythmia, ventricular fibrillation and cardiac arrest",[2],has an antiarrhythmic activity; also recorded: inhibited all these parameters
same,incidence of extrasystole,[3],5.3%
same,antiarrhythmic effect (reduction of incidence of extrasystole),[3],reduced the incidence of extrasystole with a dose-dependency; also recorded: dose-dependent reduction of the incidence of extrasystole
"Nc1ncnc2c1ncn2[C@@H]1O[C@H](COP(=O)(O)OP(=O)(O)OP(=O)(O)OP(=O)(O)OC[C@H]2O[C@@H](n3cnc4c(N)ncnc43)[C@H](O)[C@@H]2O)[C@@H](O)[C@H]1O [Ap4 A, diadenosine 5',5'''-P^1,P^4 -tetraphosphate]",relative potency vs ATP (change of heart rate),guinea pig right atrium; 10^-4 M,2.1 -fold
same,relative potency vs ATP (change of heart rate),guinea pig right atrium; 10^-5 M,1.5 -fold
same,relative potency vs ATP (change of heart rate),guinea pig right atrium; 10^-6 M,1.5 -fold
same,potency compared with ATP (percent change of heart rate),guinea pig right atrium; in words,prone to be more potent than ATP; also recorded: tends to be greater than that of ATP
same,change of heart rate (bradycardic effect),guinea pig right atrium,reduced the heart rate with a dose-dependency; also recorded: decreased the atrial heart rate with a dose-dependency
same,inhibition of ADP-induced platelet aggregation,"[4]; 3×10^-5 M to 3×10^-4 M, in words",markedly inhibited ADP-induced platelet aggregation with a dose-dependency; also recorded: inhibited by Ap4 A with a dose-dependency
same,inhibition at 300 µM,"[4]; Oryctolagus cuniculus, Platelet, 3×10^-4 M, rabbit PRP, 37° C., 10 min preincubation, vs control",76%
same,inhibition at 30 µM,"[4]; Oryctolagus cuniculus, Platelet, 3×10^-5 M, rabbit PRP, 37° C., 10 min preincubation, vs control",21%
same,DNA synthesis,[5],enhancement of DNA synthesis
same,platelet aggregation by the drug itself,platelet aggregation; [8],did not cause platelet aggregation at all
same,platelet aggregation by the drug itself,platelet aggregation; even at 3×10^-4 M,no activity of platelet aggregation; also recorded: no effect of the platelet aggregation
same,LD50,[6],102 mg/kg
same,effect on ADP-stimulated human platelet aggregation,[7],inhibitory effect
same,vasodilative action,rabbit mesenteric artery,vasodilative action
same,growth of hepatocytes,hepatocytes,promotion of the growth of hepatocytes
same,antiarrhythmic effect compared with ATP,"[2]; 30 mg/kg i.v., same dose of ATP","practically the same as that of ATP, or slightly lower; also recorded: virtually comparable with or slightly inferior to that of ATP"
same,"antiarrhythmic effect: onset of P-P interval prolongation, T-P overlapping, ventricular arrhythmia, ventricular fibrillation and cardiac arrest",[2],"inhibited the onsets of such parameters as P-P interval prolongation, T-P overlapping, ventricular arrhythmia, ventricular fibrillation and cardiac arrest; also recorded: inhibited all these parameters"
same,incidence of extrasystole,[3],8.0%
same,antiarrhythmic effect (reduction of incidence of extrasystole),[3],reduced the incidence of extrasystole with a dose-dependency; also recorded: dose-dependent reduction of the incidence of extrasystole
same,antiarrhythmic effect compared with ATP,"[3]; i.v., incidence of extrasystole",somewhat inferior to that of ATP; also recorded: somewhat weaker than that of ATP
same,perfusion pressure and left ventricular pressure,guinea pig heart; continuous infusion 1-100 μg/5ml/15 min,the perfusion pressure and the left ventricular pressure decreased depending on the dose of Ap4 A
same,dose showing coronary vasodilative effect without affecting heart rate or left ventricular pressure,guinea pig heart; e.g.,1 µg
same,heart rate,guinea pig heart; [9],marked decrease of heart rate
same,left ventricular pressure,guinea pig heart; [9],fell transiently after administration and subsequently it was elevated
same,perfusion pressure,guinea pig heart; [9],dose-dependent fall of perfusion pressure; also recorded: observed from the lowest dose of Ap4 A
same,perfusion pressure (coronary vasodilative activity),guinea pig heart; single or continuous dose,the perfusion pressure decreased depending on the dose
Nc1ncnc2c1ncn2[C@@H]1O[C@H](CO)[C@@H](O)[C@H]1O [adenosine],antiarrhythmic activity,arrhythmia,possess the antiarrhythmic activity
"CC(C)N(CCC(C(N)=O)(c1ccccc1)c1ccccn1)C(C)C (stereo not drawn) [disopyramide, reference compound]","antiarrhythmic effect: onset of P-P interval prolongation, T-P overlapping, ventricular arrhythmia, ventricular fibrillation and cardiac arrest",[2],has an antiarrhythmic activity; also recorded: inhibited all these parameters
"CC(C)NCC(O)COc1cccc2ccccc12 (stereo not drawn) [propranolol, reference compound]",antiarrhythmic effect (reduction of incidence of extrasystole),[3],reduced the incidence of extrasystole with a dose-dependency; also recorded: dose-dependent reduction of the incidence of extrasystole
